Measured values taken from PubChem BioAssay (NCI).
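Compound exposure: 48 hours, 5 concentrations, 96-well plates. TGI: total growth inhibition.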

Columns and labels:
Assay in all cases: DTP human tumour cell line panel, 48 h
NCI/ADR-RES ovarian = test system: NCI/ADR-RES ovarian
OVCAR-4 ovarian = test system: OVCAR-4 ovarian
KM12 colon = test system: KM12 colon
PC-3 prostate = test system: PC-3 prostate
HCC-2998 colon = test system: HCC-2998 colon
T-47D breast = test system: T-47D breast
SF-268 CNS = test system: SF-268 CNS
SK-MEL-2 melanoma = test system: SK-MEL-2 melanoma
SNB-75 CNS = test system: SNB-75 CNS
SF-539 CNS = test system: SF-539 CNS
NCI-H460 lung = test system: NCI-H460 lung
HT29 colon = test system: HT29 colon
DU-145 prostate = test system: DU-145 prostate

| SMILES | TGI (NCI/ADR-RES ovarian) | TGI (OVCAR-4 ovarian) | TGI (KM12 colon) | TGI (PC-3 prostate) | TGI (HCC-2998 colon) | TGI (T-47D breast) | TGI (SF-268 CNS) | TGI (SK-MEL-2 melanoma) | TGI (SNB-75 CNS) | TGI (SF-539 CNS) | TGI (NCI-H460 lung) | TGI (HT29 colon) | TGI (DU-145 prostate) |
| --- | --- | --- | --- | --- | --- | --- | --- | --- | --- | --- | --- | --- | --- |
| CCN(CC)c1nc(N(C)C)c2ccc(OC)cc2n1 | 69.1 µM | > 100 µM | 48.2 µM | 54.8 µM | 26.9 µM | 73.6 µM | > 100 µM | 36.5 µM | 66.6 µM | 49.6 µM | 26.5 µM | 26.1 µM |  |
| CC1CC(=O)C(CC(=O)O)C1C(C(=O)C(=O)Nc1c(C#N)cccc1[N+](=O)[O-])[N+](=O)[O-] (centres undefined) |  | > 100 µM | > 100 µM |  | > 100 µM |  | > 100 µM | > 100 µM | > 100 µM | > 100 µM | > 100 µM | > 100 µM |  |
| O=C(O)C(Cc1cnc[nH]1)N=Cc1nc(-c2ccccc2)oc1O (centres undefined) |  | > 100 µM |  |  | > 100 µM |  | > 100 µM | > 100 µM | > 100 µM | > 100 µM | > 100 µM | > 100 µM |  |
| CCCC(=O)/C=C/S/C=C/C(=O)CCC | 9.05 µM | 43.2 µM | 37.3 µM |  |  | > 100 µM | > 100 µM | > 100 µM | 83.6 µM | 27 µM | > 100 µM | > 100 µM | 27.1 µM |
| Nc1ccc(C(=O)NN2C(=O)C(Cl)C2c2ccc([N+](=O)[O-])cc2)cc1 (centres undefined) |  | 26.4 µM | 23.9 µM |  | 21.2 µM |  | 12.2 µM | 31.8 µM | 24.5 µM | 25.6 µM | 22.1 µM | 32.6 µM |  |
| O=c1[nH]c(=O)n(C2CC(O)C(CO)O2)cc1C#Cc1cc(C(F)(F)F)cc(C(F)(F)F)c1 (centres undefined) |  | > 100 µM | > 100 µM |  | > 100 µM |  | > 100 µM | > 100 µM | > 67.1 µM | > 90.9 µM | > 100 µM | > 51.9 µM |  |
| CN(C)CCCNC(=O)c1cc(NC(=O)c2cc(NC(=O)[C@H]3C[C@@H]3C(=O)Nc3cc(C(=O)Nc4cc(C(=O)NCCCN(C)C)n(C)c4)n(C)c3)cn2C)cn1C | > 100 µM | > 100 µM | > 100 µM | > 100 µM | > 100 µM |  | > 100 µM | > 100 µM | > 100 µM | > 100 µM | > 100 µM | > 100 µM | > 100 µM |
| O=C1SC(c2ccccc2)(c2ccccc2)c2ccccc21 |  | > 100 µM | > 100 µM |  | > 100 µM |  | > 100 µM | > 100 µM | > 100 µM | > 100 µM | > 100 µM | > 100 µM |  |
| CC(C)C(Sc1nc(-c2ccccc2)c(-c2ccccc2)[nH]1)C(=O)N/N=C/c1ccc([N+](=O)[O-])cc1 (centres undefined) |  | 80.5 µM | 24.5 µM |  |  |  | 40 µM | 29.4 µM | 42.3 µM | 36.5 µM | 34.1 µM | 23.2 µM |  |
| CC(=O)OC1(C#N)CC2OC1C1C2N1C(=O)OC(C)(C)C (centres undefined) |  | > 100 µM |  |  | > 100 µM |  | > 100 µM | > 100 µM | > 100 µM | > 100 µM | > 100 µM |  |  |
| NC(CCCCN=Cc1nc(-c2ccccc2)oc1O)C(=O)O (centres undefined) |  | > 100 µM |  |  | > 100 µM |  | > 100 µM | > 100 µM | > 100 µM | > 100 µM | > 100 µM | > 100 µM |  |
| Cc1ccc([N+](=O)[O-])cc1NC(=O)C(=O)Cc1cc(=O)oc2cc(O)ccc12 |  | > 100 µM | > 100 µM |  | > 100 µM |  | > 100 µM | > 100 µM | > 100 µM | > 100 µM | > 100 µM | > 100 µM |  |
| CCn1c(-c2ccccc2)nc2c1C(=O)c1ccccc1C2=O | 33.9 µM | 30 µM | 73.8 µM | 64.3 µM | 51.4 µM |  |  |  |  | > 100 µM | 46.5 µM | 30.3 µM | > 100 µM |
| COC(=O)c1cc(-c2ccc(-c3ccc(O)cc3)cc2)cc(-c2ccc(-c3ccc(O)cc3)cc2)c1 | 30.1 µM | 35.9 µM | 6.82 µM | 31 µM | 33 µM | 33.8 µM | 17.8 µM | 33.7 µM | 27.8 µM | 19.8 µM | 35 µM |  |  |
| CC(C)[Si](OCC1CC(C[C@H]2CC(C[C@H]3C[C@@H](CO[Si](C(C)C)(C(C)C)C(C)C)OC(C)(C)O3)OC(C)(C)O2)OC(C)(C)O1)(C(C)C)C(C)C (some centres undefined) |  | > 100 µM | > 100 µM |  | > 100 µM |  | > 100 µM | > 100 µM | > 100 µM | > 100 µM | > 100 µM | > 100 µM |  |
| Cc1cc(NS(=O)(=O)c2ccc(NC(=O)c3cccc4cc5ccccc5nc34)cc2)no1 |  | 39.7 µM | 40.7 µM |  |  |  | > 100 µM | 41.4 µM | 41.9 µM | 33.3 µM | 72.2 µM | > 100 µM |  |
| CCN(CC)CCNc1ccc2ncn3c4c(OC)cccc4c(=O)c1c23 |  | 15.4 µM | 17.4 µM | 17.6 µM | 18.6 µM | > 100 µM | 17.6 µM |  | 24.5 µM | 22.8 µM | 15.2 µM | 36.1 µM | 24.2 µM |
